Data on three compounds can be found in patent publication US4273923A, “Process for preparing aminoglycoside derivatives” (Shionogi & Co., Ltd., priority 1979, dated 1981).

The test system of assay [1] is Proteus morganii Morg. 96. Kind of assay: MIC by agar dilution method. The conditions noted are these: Morganella morganii, MORG.96, 20 h, read-out: Minimum Inhibitory Concentration (MIC). For orientation: In agar dilution, organisms are placed on agar that contains the substance at set levels.
Method: (§1) MIC was determined by the following agar dilution method:
(§2) One loopful of a strain of bacteria to be tested on agar slant was inoculated into a medium for growth of inoculum (Trypto Soy Broth; Eiken Chemical Co.) and incubated at 37° C. overnight.
(§3) (2) Preparation of medium for antibacterial activity test
(§4) A sample solution of aminoglycoside derivative was subjected to serial two-fold dilutions with sterile water. These diluted sample solutions were distributed to the Modified Mueller Hinton Agar medium (Nissui-Seiyaku Co.), mixed gently and allowed to solidify.
(§5) One loopful of the bacterial suspension prepared in (1) was placed on the surface of the medium prepared in (2) containing the aminoglycoside derivative in various concentrations at 10^6 CFU/ml inoculum size.
Assay [2] relates to Staphylococcus epidermidis TB-302. Kind of assay: MIC by agar dilution method. The following applies: TB302, innoculum size 10^4 CFU/ml, 37° C., 18 to 20 hours, read-out: Minimum Inhibitory Concentration (MIC). Format: cell-based. An excerpt:
(1) Preparation of bacterial suspensions
(3) Determination of MIC values

For assay [3], the system named is Klebsiella pneumoniae Kl-168. Kind of assay: MIC by agar dilution method. The following applies: KL168, 20 h, read-out: Minimum Inhibitory Concentration (MIC).
Method: as §1, §2, §3, §4, §5
Assay [4] has as its system Escherichia coli W-677/JR 762. Kind of assay: MIC by agar dilution method. The conditions noted are these: W677/JR762, 20 h, read-out: Minimum Inhibitory Concentration (MIC).
Method: as §1, §2, §3, §4, §5
The conditions of assay [5]: compared with kanamycin A; cited from earlier work.

Converted amounts (≈) assume the structure as drawn.

Consider `NCC1=CC[C@@H](N)[C@@H](O[C@H]2[C@H](O)[C@@H](O[C@H]3O[C@H](CO)[C@@H](O)[C@H](N)[C@H]3O)[C@H](N)C[C@@H]2N)O1` [[A], O-[3-amino-3-deoxy-α-D-glucopyranosyl-(1→6)]-O-[2,6-diamino-2,3,4,6-tetradeoxy-α-D-glycero-hex-4-enopyranosyl-(1→4)]-2-deoxy-D-streptamine], for which the MIC was determined as 12.5 µg/mL (≈ 27.8 µM) in assay [1], 0.2 µg/mL (≈ 0.445 µM) in assay [2], 50 µg/mL (≈ 111 µM) in assay [3] and 12.5 µg/mL (≈ 27.8 µM) in assay [4].

In the case of `NC[C@H]1O[C@H](O[C@H]2[C@H](O)[C@@H](O[C@H]3O[C@H](CO)[C@@H](O)[C@H](N)[C@H]3O)[C@H](N)C[C@@H]2N)[C@H](N)C[C@@H]1O` [TOB, tobramycin], the MIC in assay [1] worked out at 25 µg/mL (≈ 53.5 µM); in assay [2] it was 3.1 µg/mL (≈ 6.63 µM); in assay [3], 100 µg/mL (≈ 214 µM); in assay [4], 50 µg/mL (≈ 107 µM).

Consider `NCC[C@H](O)C(=O)N[C@@H]1C[C@H](N)[C@@H](O[C@H]2O[C@H](CN)[C@@H](O)[C@H](O)[C@H]2O)[C@H](O)[C@H]1O[C@H]1O[C@H](CO)[C@@H](O)[C@H](N)[C@H]1O` [amikacin], for which, in assay [5], the antimicrobial activity result was “more potent than kanamycin A”.
